# Test results reported in ChEMBL document CHEMBL1139899, “Alpha-phenyl-N-tert-butyl nitrone (PBN) derivatives: synthesis and protective action against microvascular damages induced by ischemia/reperfusion” (Bioorg Med Chem, 2007).
# System: Syrian golden hamster
# Assay: Protective effect against ischemia/reperfusion-induced microvascular damages in golden hamster assessed as number of leakage site per cm^2 at 10 mg/kg, po after 10 mins by cheek pouch assay
# Format: functional, Mesocricetus auratus
# Conditions: not given
row,SMILES,Activity
1,Cc1c(C)c2c(c(C)c1O)CC[C@@](C)(CCC[C@H](C)CCC[C@H](C)CCCC(C)C)O2 [ALPHA-TOCOPHEROL],50 cm2

# System: Syrian golden hamster
# Assay: Protective effect against ischemia/reperfusion-induced microvascular damages in golden hamster assessed as number of leakage site per cm^2 at 10 mg/kg, po after 15 mins by cheek pouch assay
# Format: functional, Mesocricetus auratus
# Conditions: not given
row,SMILES,Activity
1,Cc1c(C)c2c(c(C)c1O)CC[C@@](C)(CCC[C@H](C)CCC[C@H](C)CCCC(C)C)O2 [ALPHA-TOCOPHEROL],45 cm2

# System: Syrian golden hamster
# Assay: Protective effect against ischemia/reperfusion-induced microvascular damages in golden hamster assessed as number of leakage site per cm^2 at 3 mg/kg, po after 15 mins by cheek pouch assay
# Format: functional, Mesocricetus auratus
# Conditions: not given
row,SMILES,Activity
1,CC(C)(C)/[N+]([O-])=C\c1ccc([N+](=O)[O-])cc1,78 leakage sites/cm2
2,CC(C)(C)/[N+]([O-])=C/c1cc2c(cc1Br)OCO2,109 leakage sites/cm2
3,CN(C)c1ccc(/C=[N+](/[O-])C(C)(C)C)cc1,55 leakage sites/cm2
4,COc1cc(/C=[N+](/[O-])C(C)(C)C)ccc1OCc1ccccc1,35 leakage sites/cm2
5,COc1cc(/C=[N+](/[O-])C(C)(C)C)ccc1O,85 leakage sites/cm2
6,CC(C)(C)/[N+]([O-])=C\c1cccnc1,60 leakage sites/cm2
7,CC(C)(C)/[N+]([O-])=C\c1ccc2c(c1)OCO2,38 leakage sites/cm2
8,CC(C)(C)/[N+]([O-])=C\c1ccco1,33 leakage sites/cm2

# System: Syrian golden hamster
# Assay: Protective effect against ischemia/reperfusion-induced microvascular damages in golden hamster assessed as number of leakage site per cm^2 at 3 mg/kg, po after 10 mins by cheek pouch assay
# Format: functional, Mesocricetus auratus
# Conditions: not given
row,SMILES,Activity
1,CC(C)(C)/[N+]([O-])=C\c1ccc([N+](=O)[O-])cc1,90 leakage sites/cm2
2,CC(C)(C)/[N+]([O-])=C/c1cc2c(cc1Br)OCO2,118 leakage sites/cm2
3,CN(C)c1ccc(/C=[N+](/[O-])C(C)(C)C)cc1,75 leakage sites/cm2
4,COc1cc(/C=[N+](/[O-])C(C)(C)C)ccc1OCc1ccccc1,40 leakage sites/cm2
5,COc1cc(/C=[N+](/[O-])C(C)(C)C)ccc1O,108 leakage sites/cm2
6,CC(C)(C)/[N+]([O-])=C\c1cccnc1,68 leakage sites/cm2
7,CC(C)(C)/[N+]([O-])=C\c1ccc2c(c1)OCO2,44 leakage sites/cm2
8,CC(C)(C)/[N+]([O-])=C\c1ccco1,49 leakage sites/cm2

# System: not listed separately
# Assay: Partition coefficient, log P of the compound
# Format: physicochemical
# Conditions: octanol/water
row,SMILES,logP
1,CC(C)(C)/[N+]([O-])=C\c1ccc([N+](=O)[O-])cc1,1.39
2,CC(C)(C)/[N+]([O-])=C/c1cc2c(cc1Br)OCO2,1.69
3,CN(C)c1ccc(/C=[N+](/[O-])C(C)(C)C)cc1,1.73
4,COc1cc(/C=[N+](/[O-])C(C)(C)C)ccc1OCc1ccccc1,2.68
5,COc1cc(/C=[N+](/[O-])C(C)(C)C)ccc1O,1.58
6,CC(C)(C)/[N+]([O-])=C\c1cccnc1,0.21
7,CC(C)(C)/[N+]([O-])=C\c1ccc2c(c1)OCO2,0.57
8,CC(C)(C)/[N+]([O-])=C\c1ccco1,1.1
9,CC(C)(C)/[N+]([O-])=C/c1ccccc1,1.5
